Assay results from PubChem BioAssay (NCI).
Values joined by “and” are separate entries in the source; they are usually repeats but may differ in a detail not shown here. Equal values may be shown once.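 Briefly, cells in 96-well plates were exposed to five compound concentrations for 48 h, and endpoints were estimated by linear interpolation. Here, GI50 denotes the concentration required for 50% inhibition of growth. The concentration for full growth arrest is given as TGI.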

Legend:
Assay in all cases: NCI-60 cell line screen, 48 h
[1] = tested on: SK-MEL-2 melanoma
[2] = tested on: NCI-H460 lung
[3] = tested on: MOLT-4 leukemia
[4] = tested on: OVCAR-4 ovarian
[5] = tested on: SF-268 CNS
[6] = tested on: UACC-62 melanoma
[7] = tested on: HCC-2998 colon
[8] = tested on: HL-60(TB) leukemia
[9] = tested on: OVCAR-8 ovarian
[10] = tested on: HCT-116 colon

Row | SMILES | TGI [1] | TGI [2] | TGI [3] | TGI [4] | TGI [5] | TGI [6] | TGI [7] | TGI [8] | TGI [9] | TGI [10] | GI50 [1] | GI50 [2] | GI50 [3] | GI50 [4] | GI50 [5] | GI50 [6] | GI50 [7] | GI50 [9] | GI50 [10]
1 | COC(=O)NC1C(C)OC(OC2C/C=C(/C)C3C=CC4C(OC5CC(OC6CC(OC7CC(O)C(O)C(C)O7)C(OC7CC(O)C(OC)C(C)O7)C(C)O6)C(O)C(C)O5)C(C)CC(C)C4C3(C)/C(O)=C3\C(=O)OC4(CC(C)C(CO)=CC4/C=C\2C)C3=O)CC1(C)[N+](=O)[O-] (centres undefined) | 87.2 µM | 4.86 µM | 31.7 µM | 46.2 µM | > 100 µM | 17.8 µM | 18.9 µM | 11.4 µM | 33.4 µM | 3.09 µM |  |  |  |  |  |  |  |  | 
2 | CC1C(=O)C(C)C(c2ccco2)N(N=O)C1c1ccco1 (centres undefined) | > 100 µM | > 100 µM | > 100 µM | > 100 µM | > 100 µM | > 100 µM | > 100 µM | > 100 µM | > 100 µM | > 100 µM |  |  |  |  |  |  |  |  | 
3 | Nc1nc(OCC2CCCCC2)c2[nH]cnc2n1 | 22.1 µM | > 67.9 µM | > 68.8 µM | 42.3 µM | > 100 µM | > 74.6 µM | > 67.8 µM | 59.8 µM | > 100 µM | 74 µM |  |  |  |  |  |  |  |  | 
4 | Cc1[nH]n(-c2ccccc2)c(=O)c1C(N(CCc1ccccc1)C1=NCC(C)S1)(C(F)(F)F)C(F)(F)F (centres undefined) | 22.4 µM | 38.2 µM | 97.8 µM | > 100 µM | > 100 µM | 24 µM | 34 µM | 52.5 µM |  | 23.8 µM |  |  |  |  |  |  |  |  | 
5 | CC(=O)OCC1OC(Oc2cc(C)c(O)cc2C/C=C(\C)CC/C=C(\C)C[C@@H](C=C(C)C)OC(C)=O)C(O)C(OC(C)=O)C1OC(C)=O (some centres undefined) | > 50 µM | > 50 µM | 20.5 µM | > 50 µM | > 50 µM | > 50 µM | 41.2 µM | 21 µM | > 50 µM | > 50 µM |  |  |  |  |  |  |  |  | 
6 | c1c2c(cc3c1OCO3)-c1cc3ccc4c(c3c[n+]1CC2)OCO4 | > 12.5 µM | 3.55 µM | > 12.5 µM | > 12.5 µM | > 12.5 µM | > 12.5 µM | > 12.5 µM | > 4.93 µM | 4.13 µM | > 5.82 µM |  |  |  |  |  |  |  |  | 
7 | O=C(NC(Cc1ccc(I)cc1)C(=O)O)c1ccc(Cl)cc1 (centres undefined) | > 100 µM | > 100 µM | > 100 µM | > 100 µM | > 100 µM | > 100 µM | > 100 µM | > 100 µM | > 100 µM | > 100 µM |  |  |  |  |  |  |  |  | 
8 | CN(C)c1ccc(/C=c2/c3ccccc3n3c2cc(NC(=O)NCCC[N+](C)(C)C)[n+]3C)cc1 | > 100 µM | > 100 µM | > 100 µM | 50.1 µM | > 100 µM | > 100 µM |  | > 100 µM | > 100 µM | > 100 µM |  |  |  |  |  |  |  |  | 
9 | Oc1ccc(-c2nc3cc(F)ccc3s2)cc1 | 36.9 µM | 48.8 µM | > 100 µM | 36.9 µM | 74 µM | 36.4 µM | 28.3 µM | > 100 µM | > 100 µM | 42.1 µM |  |  |  |  |  |  |  |  | 
10 | CNC(C)Cc1ccccc1OC (centres undefined) | > 100 µM | > 100 µM | > 100 µM | > 100 µM | > 100 µM | > 100 µM | > 100 µM | > 100 µM | > 100 µM | > 100 µM |  |  |  |  |  |  |  |  | 
11 | C[n+]1c2ccccc2c(CNC(CS)C(=O)O)c2ccccc21 (centres undefined) | 76.8 µM | 47.9 µM | 36.7 µM | > 100 µM | > 100 µM | 29.6 µM | > 100 µM | 43.4 µM | 75 µM | 37.8 µM |  |  |  |  |  |  |  |  | 
12 | O=c1c2cc(S(=O)(=O)O)ccc2nc(COc2ccc(Oc3ccc(Cl)cc3Cl)cc2)n1C(=S)Nc1ccc(Cl)cc1 | 37.4 µM | 35.8 µM |  | 59.3 µM | 31.3 µM | 31 µM |  | 4.07 µM | 55.3 µM | 53.3 µM |  |  |  |  |  |  |  |  | 
13 | CCSc1nc(-c2cccs2)nc2ccc(I)cc12 | > 100 µM | > 100 µM | > 100 µM | > 100 µM | > 100 µM | > 100 µM | > 100 µM | > 100 µM | > 100 µM | > 100 µM |  |  |  |  |  |  |  |  | 
14 | O=C1OC2(OC2c2ccc(Cl)cc2)c2ccccc21 (centres undefined) | > 100 µM | > 100 µM | > 100 µM | > 100 µM | > 100 µM | > 100 µM | > 100 µM | > 100 µM | > 100 µM | > 100 µM |  |  |  |  |  |  |  |  | 
15 | COC(=O)/C=C1\CCCN1CCc1cc2c(cc1CC#N)OCO2 | > 100 µM | > 100 µM | > 100 µM | > 100 µM | > 100 µM | > 100 µM | 93.7 µM | > 100 µM | > 100 µM | > 100 µM |  |  |  |  |  |  |  |  | 
16 | COC(=O)c1ccccc1C1=C([N+](=O)[O-])C(c2cccc(Br)c2)C(C#N)=C(N)O1 (centres undefined) | > 100 µM | > 100 µM | > 100 µM |  | 93.3 µM | 42.7 µM | > 100 µM | 70.6 µM | 45.1 µM | 92.9 µM |  |  |  |  |  |  |  |  | 
17 | CC1(C=O)CCC23COC4(CCC5C6(C)CCC(OC7OCC(OC8OC(CO)C(O)C(OC9OC(CO)C(O)C(O)C9O)C8OC8OCC(O)C(O)C8O)C(O)C7OC7OC(CO)C(O)C(O)C7O)C(C)(C)C6CCC5(C)C4(C)CC2O)C3C1 (centres undefined) | 2.98 µM | 2.55 µM |  | 2.38 µM | 2.47 µM | 3.17 µM | 2.17 µM | 1.41 µM | 1.48 µM | 2.74 µM |  |  |  |  |  |  |  |  | 
18 | COc1cc([N+](=O)[O-])ccc1NC(=O)c1cccc([N+](=O)[O-])c1O | 68 µM | > 100 µM | > 100 µM | > 100 µM | > 100 µM | > 100 µM | > 100 µM | 55.4 µM | > 100 µM | > 100 µM |  |  |  |  |  |  |  |  | 
19 | CC1(O)COCCCCOc2c(CN)cccc2NC(=O)c2nc(cnc2N)-c2ccc(cc2)S(=O)(=O)C(C)(C)C1 (centres undefined) | 3.36 µM | 1.94 µM | 2.4 µM | 2.71 µM | 3.19 µM | 3.36 µM | 2.87 µM |  | 3.63 µM | 1.12 µM | 1.74 µM | < 0.01 µM | 0.019 µM | 1.29 µM | 1.51 µM | 1.86 µM | 1.48 µM | 1.31 µM | 0.129 µM
20 | NCCNCCNc1ccc(NCCNCCN)c2c1C(=O)c1c(O)ccc(O)c1C2=O |  | > 100 µM | > 100 µM | > 100 µM | > 100 µM | > 100 µM | > 100 µM |  | > 100 µM | > 100 µM |  |  |  |  |  |  |  |  | 
21 | CCc1ccc2c(c1)C(=O)c1c-2n(CCCN)c(=O)c2cc([N+](=O)[O-])ccc12 |  | 0.504 µM |  | 3 µM |  | 2.83 µM | 1.12 µM |  | 2.35 µM | 1.89 µM |  | 0.167 µM |  | 1.39 µM |  | 1.48 µM | 0.376 µM | 1.02 µM | 0.573 µM
22 | CCOC(=O)Nc1cc2c(c(N)n1)N=C(c1ccc3ccccc3c1)CN2 | 5.15 µM | 3.33 µM |  | > 64.6 µM | > 86.1 µM | 30.9 µM | 1.47 µM | > 100 µM | 10.8 µM | 1.49 µM |  |  |  |  |  |  |  |  | 
23 | c1ccc([P+](c2ccccc2)(c2ccccc2)c2ccc(-c3ccc([P+](c4ccccc4)(c4ccccc4)c4ccccc4)cc3)cc2)cc1 | 62 µM | > 100 µM | > 100 µM | 94.8 µM | > 100 µM | > 100 µM | > 100 µM | > 100 µM | 85.5 µM | 58 µM |  |  |  |  |  |  |  |  | 
24 | CN(C)CCCN1c2ccc([N+](=O)[O-])cc2CCc2cc([N+](=O)[O-])ccc21 | 36.9 µM and 32.4 µM | 30 µM and 26.2 µM | 42.9 µM and 25.3 µM | 14 µM and 31.3 µM | 30.2 µM and 29 µM | 26.3 µM and 28.2 µM | 21.9 µM and 24.7 µM | 31 µM and 30.1 µM | 29.5 µM and 30 µM | 27.4 µM and 27.1 µM |  |  |  |  |  |  |  |  | 
25 | CO/N=C(\C)c1cccc(Nc2nc3ccccc3c3occc23)c1 |  | 29.6 µM | 37.3 µM | 31.8 µM | 32.5 µM | 2.18 µM | 28.8 µM | 59.5 µM | 33.4 µM | 23.8 µM |  |  |  |  |  |  |  |  | 
26 | N=C(N)SCc1cccc([N+](=O)[O-])c1 | > 73.7 µM | > 100 µM | > 91.2 µM | > 83.1 µM | > 100 µM | > 100 µM | > 100 µM | 43.6 µM | > 67 µM | > 83.7 µM |  |  |  |  |  |  |  |  | 
27 | CCO[C@]12CCC[C@H]1[C@@H]1C(=O)c3ccccc3C(=O)C1=C(C)O2 | > 100 µM | > 100 µM | > 100 µM | 97.9 µM | > 100 µM | > 100 µM | > 100 µM | > 100 µM | > 100 µM |  |  |  |  |  |  |  |  |  | 
28 | O=C(CSc1nc2ccc(I)cc2c(=O)n1Cc1ccccc1)NN1C(=O)c2ccccc2C1=O | 28.4 µM | > 100 µM | 95 µM | 38.2 µM | 36.4 µM | 70.7 µM | > 100 µM | 33.5 µM | 34.1 µM | > 100 µM |  |  |  |  |  |  |  |  | 
29 | CCOP(=O)(OCC)C(Nc1cccc(F)c1)c1ccc(N(C)C)cc1 (centres undefined) | > 100 µM | > 100 µM | > 100 µM | > 100 µM | > 100 µM | > 100 µM | > 100 µM | > 100 µM | > 100 µM | > 100 µM |  |  |  |  |  |  |  |  | 
30 | Cc1c2cc[n+](C)cc2c(C)c2c1oc1ccccc12 | 15.8 µM | 16.7 µM | 28.7 µM | 21.8 µM | 2.71 µM | 16.5 µM | 12.3 µM | > 73.2 µM | 29.8 µM | 24.5 µM |  |  |  |  |  |  |  |  | 
